{"source": "paper PMC10518257", "about": "(Nature Cancer, 2023)", "key": {"LUAD-0077AS1 PDX": {"tested_on": "LUAD-0077AS1 PDX", "assay": "PDX efficacy study", "type": "in vivo, NSG mice", "set-up": "Tumor volume: unit not given here", "conditions": "LUAD-0077AS1, 10 mg/kg BID, individual animals"}, "[1]": {"tested_on": "Ba/F3 KIF5B–RET^WT allograft tumors", "assay": "Subcutaneous allograft efficacy study", "type": "in vivo, BALB/c nude mice", "conditions": "Ba/F3-KIF5B::RET, Ext. Data Fig. 9a"}, "[2]": {"tested_on": "Ba/F3 KIF5B–RET^G810R allograft tumors", "assay": "Subcutaneous allograft efficacy study", "type": "in vivo, BALB/c nude mice", "conditions": "in mm³ (unit assumed)"}, "[3]": {"tested_on": "ECLC5 luciferase cells implanted intracranially", "assay": "Intracranial efficacy study", "type": "in vivo, NSG mice", "conditions": "for Luminescence Data: Fig. 8e ECLC5 intracranial, individual animals"}}, "note": "Values joined by “and” are separate entries in the source; they are usually repeats but may differ in a detail not shown here. Identical values can stand only once.", "data": [{"molecule": "COc1ccc(CN2C3CC2CN(c2ccc(-c4cc(OCC(C)(C)O)cn5ncc(C#N)c45)cn2)C3)cn1", "note": "[Selpercatinib]", "values": [{"measurement": "Tumor volume", "setting": "LUAD-0077AS1 PDX; treatment day 7", "result": "60.32 and 69.38 and 66.76 and 62.86"}, {"measurement": "Tumor volume", "setting": "LUAD-0077AS1 PDX; treatment day 11", "result": "55.4 and 58.99 and 56.5 and 54.36 and 55.52"}, {"measurement": "Tumor volume", "setting": "LUAD-0077AS1 PDX; treatment day 14", "result": "43.41 and 58.99 (2×) and 54.36 and 55.52"}, {"measurement": "Tumor volume", "setting": "LUAD-0077AS1 PDX; treatment day 19", "result": "65.45 and 118.47 and 103.45 and 103.77 and 100.4"}, {"measurement": "Tumor volume", "setting": "LUAD-0077AS1 PDX; treatment day 22", "result": "73.3 and 171.06 and 147.55 and 142.9 and 164.22"}, {"measurement": "Tumor volume", "setting": "LUAD-0077AS1 PDX; treatment day 25", "result": "73.3 and 231.59 and 205.8 and 209.11 and 214.85"}, {"measurement": "Tumor Volume Mean", "setting": "[1]; 3 mg/kg BID, Day 1", "result": 153.36, "unit": "mm3"}, {"measurement": "Tumor Volume Mean", "setting": "[1]; 3 mg/kg BID, Day 4", "result": 200.42, "unit": "mm3"}, {"measurement": "Tumor Volume Mean", "setting": "[1]; 3 mg/kg BID, Day 8", "result": 331.73, "unit": "mm3"}, {"measurement": "Tumor Volume Mean", "setting": "[1]; 3 mg/kg BID, Day 11", "result": 595.39, "unit": "mm3"}, {"measurement": "Tumor Volume Mean", "setting": "[1]; 3 mg/kg BID, Day 15", "result": 703.72, "unit": "mm3"}, {"measurement": "Tumor Volume Mean", "setting": "[1]; 10 mg/kg BID, Day 1", "result": 152.35, "unit": "mm3"}, {"measurement": "Tumor Volume Mean", "setting": "[1]; 10 mg/kg BID, Day 4", "result": 168.16, "unit": "mm3"}, {"measurement": "Tumor Volume Mean", "setting": "[1]; 10 mg/kg BID, Day 8", "result": 206.58, "unit": "mm3"}, {"measurement": "Tumor Volume Mean", "setting": "[1]; 10 mg/kg BID, Day 11", "result": 318.64, "unit": "mm3"}, {"measurement": "Tumor Volume Mean", "setting": "[1]; 10 mg/kg BID, Day 15", "result": 406.01, "unit": "mm3"}, {"measurement": "Tumor Volume Mean", "setting": "[1]; 30 mg/kg BID, Day 1", "result": 155.70, "unit": "mm3"}, {"measurement": "Tumor Volume Mean", "setting": "[1]; 30 mg/kg BID, Day 4", "result": 126.28, "unit": "mm3"}, {"measurement": "Tumor Volume Mean", "setting": "[1]; 30 mg/kg BID, Day 8", "result": 138.87, "unit": "mm3"}, {"measurement": "Tumor Volume Mean", "setting": "[1]; 30 mg/kg BID, Day 11", "result": 107.82, "unit": "mm3"}, {"measurement": "Tumor Volume Mean", "setting": "[1]; 30 mg/kg BID, Day 15", "result": 112.41, "unit": "mm3"}, {"measurement": "Tumor Volume Mean", "setting": "[1]; 100 mg/kg BID, Day 1", "result": 157.17, "unit": "mm3"}, {"measurement": "Tumor Volume Mean", "setting": "[1]; 100 mg/kg BID, Day 4", "result": 107.92, "unit": "mm3"}, {"measurement": "Tumor Volume Mean", "setting": "[1]; 100 mg/kg BID, Day 8", "result": 75.50, "unit": "mm3"}, {"measurement": "Tumor Volume Mean", "setting": "[2]; Fig. 7c Ba/F3-KIF5B::RET G810R, selpercatinib 10 mg/kg BID, day 1", "result": 153.47}, {"measurement": "Tumor Volume Mean", "setting": "[2]; Fig. 7c Ba/F3-KIF5B::RET G810R, selpercatinib 10 mg/kg BID, day 4", "result": 195.84}, {"measurement": "Tumor Volume Mean", "setting": "[2]; Fig. 7c Ba/F3-KIF5B::RET G810R, selpercatinib 10 mg/kg BID, day 8", "result": 432.66}, {"measurement": "Tumor Volume Mean", "setting": "[2]; Fig. 7c Ba/F3-KIF5B::RET G810R, selpercatinib 10 mg/kg BID, day 11", "result": 585.46}, {"measurement": "Tumor Volume Mean", "setting": "[2]; Fig. 7c Ba/F3-KIF5B::RET G810R, selpercatinib 10 mg/kg BID, day 15", "result": 999.76}, {"measurement": "Tumor Volume Mean", "setting": "[2]; Fig. 7d Ba/F3-KIF5B::RET G810R, selpercatinib 30 mg/kg BID, day 1", "result": 157.6}, {"measurement": "Tumor Volume Mean", "setting": "[2]; Fig. 7d Ba/F3-KIF5B::RET G810R, selpercatinib 30 mg/kg BID, day 4", "result": 307.7}, {"measurement": "Tumor Volume Mean", "setting": "[2]; Fig. 7d Ba/F3-KIF5B::RET G810R, selpercatinib 30 mg/kg BID, day 8", "result": 440.3}, {"measurement": "Tumor Volume Mean", "setting": "[2]; Fig. 7d Ba/F3-KIF5B::RET G810R, selpercatinib 30 mg/kg BID, day 11", "result": 551.9}, {"measurement": "Tumor Volume Mean", "setting": "[2]; Fig. 7d Ba/F3-KIF5B::RET G810R, selpercatinib 30 mg/kg BID, day 15", "result": 795.7}, {"measurement": "median survival time", "setting": "[3]; 10 mg per kg BID", "result": "99 d of treatment"}, {"measurement": "Area Under Curve Mean", "setting": "[3]; Fig. 8e (middle panel) ECLC5 luminescence, 10 mg/kg BID", "result": 27186332000}, {"measurement": "Luminescence Data", "setting": "[3]; 10 mg/kg BID, treatment day 0 (=1)", "result": 1}, {"measurement": "Luminescence Data", "setting": "[3]; 10 mg/kg BID, treatment day 5, day 0 = 1, 10 mg/kg", "result": "1.5865 and 1.821 and 1.255 and 0.4814 and 3.25 and 0.8886"}, {"measurement": "Luminescence Data", "setting": "[3]; 10 mg/kg BID, treatment day 12, day 0 = 1, 10 mg/kg", "result": "3.019 and 2.275 and 2.308 and 0.7742 and 2.674 and 1.142"}, {"measurement": "Luminescence Data", "setting": "[3]; 10 mg/kg BID, treatment day 18, day 0 = 1, 10 mg/kg", "result": "4.468 and 13.8627 and 3.677 and 17.2275 and 4.61 and 2.3303"}, {"measurement": "Luminescence Data", "setting": "[3]; 10 mg/kg BID, treatment day 26, day 0 = 1, 10 mg/kg", "result": "4.838 and 8.783 and 2.8 and 90.8154 and 2.049 and 2.4586"}, {"measurement": "Luminescence Data", "setting": "[3]; 10 mg/kg BID, treatment day 33, day 0 = 1, 10 mg/kg", "result": "19.3932 and 14.9637 and 7.347 and 180.944 and 3.353 and 5.483"}, {"measurement": "Luminescence Data", "setting": "[3]; 10 mg/kg BID, treatment day 40, day 0 = 1, 10 mg/kg", "result": "20.6751 and 16.1418 and 17.1097 and 476.137 and 5.8 and 4.798"}, {"measurement": "Luminescence Data", "setting": "[3]; 10 mg/kg BID, treatment day 46, day 0 = 1, 10 mg/kg", "result": "53.1577 and 52.4694 and 35.0274 and 881.545 and 19.3617 and 18.0494"}, {"measurement": "Luminescence Data", "setting": "[3]; 10 mg/kg BID, treatment day 55, day 0 = 1, 10 mg/kg", "result": "200.4 and 271.183 and 155.59 and 1935.62 and 78.0003 and 75.6827"}, {"measurement": "Luminescence Data", "setting": "[3]; 10 mg/kg BID, treatment day 61, day 0 = 1, 10 mg/kg", "result": "323.18 and 414.363 and 232.604 and 1527.04 and 186.289 and 64.6294"}, {"measurement": "Luminescence Data", "setting": "[3]; 10 mg/kg BID, treatment day 68, day 0 = 1, 10 mg/kg", "result": "561.802 and 676.257 and 207.714 and 1673.82 and 333.171 and 210.62"}, {"measurement": "Luminescence Data", "setting": "[3]; 10 mg/kg BID, treatment day 75, day 0 = 1, 10 mg/kg", "result": "570.505 and 1484.59 and 792.807 and 4751.93 and 432.014 and 174.469"}, {"measurement": "Luminescence Data", "setting": "[3]; 10 mg/kg BID, treatment day 82, day 0 = 1, 10 mg/kg", "result": "999.294 and 1867.47 and 955.043 and 3557.94 and 547.305 and 464.239"}]}]}
